Data reported in PubChem BioAssay (NCI).
Values joined by “and” are separate entries in the source; they are usually repeats but may differ in a detail not shown here. Equal values may be shown once.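 Cells were grown in 96-well plates and exposed to each compound for 48 hours at five concentrations; endpoints were interpolated linearly between bracketing concentrations, or set to the highest concentration if not reached. GI50 = concentration required for 50% inhibition of growth. Definition used: TGI = concentration required for complete inhibition of growth.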

Columns and labels:
Test in all cases: NCI tumour cell line growth inhibition, 48 h
[1] = tested on: MDA-N
[2] = tested on: KM20L2 colon
[3] = tested on: RXF-631 renal
[4] = tested on: M19-MEL melanoma
[5] = tested on: DLD-1 colon
[6] = tested on: LXFL 529 NSCLC
[7] = tested on: SNB-78 CNS
[8] = tested on: XF 498 CNS
[9] = tested on: HOP-18 NSCLC
[10] = tested on: SN12K1 renal
[11] = tested on: P388 leukemia
[12] = tested on: P388/ADR leukemia

| SMILES | TGI [1] | TGI [2] | TGI [3] | TGI [4] | TGI [5] | TGI [6] | TGI [7] | TGI [8] | TGI [9] | other results |
| --- | --- | --- | --- | --- | --- | --- | --- | --- | --- | --- |
| CC1(C)CC2=NO[Se]3=C2C(=NO3)C1 | 4.22 µM |  |  |  |  |  |  |  |  |  |
| CCCCC(C(=O)C(=O)Nc1ccccc1CC)C(=O)C(C)C (stereo not given) |  | > 100 µM | > 100 µM | > 100 µM | > 100 µM | > 100 µM | > 100 µM | > 100 µM |  |  |
| N=C(N)SCc1ccc(Cl)c2ccccc12 (tested in a mixture with another compound) | 23.4 µM and 24.8 µM |  |  |  |  |  |  |  |  |  |
| NS(=O)(=O)c1cc2c(cc1Cl)NCNS2(=O)=O | > 100 µM |  |  |  |  |  |  |  |  |  |
| COc1ccc(C(C)Nc2cc(OC)c(OC)c(OC)c2)cc1 (stereo not given) |  | 7.3 µM |  | > 100 µM | > 100 µM | > 100 µM | 17.6 µM | > 26.4 µM | > 100 µM |  |
| CC(C)CCCC(C)C1CCC2C3CC([N+](=O)[O-])=C4CC(O)CCC4(C)C3CCC12C (stereo not given) |  | 34.7 µM |  | 73.3 µM | 35.9 µM | 32.9 µM |  | 37.1 µM |  |  |
| ON1CCc2c([nH]c3ccccc23)C1c1ccc(Cl)cc1 (stereo not given) |  | 77.5 µM |  | > 100 µM | > 100 µM | > 100 µM | > 100 µM | 57.6 µM |  |  |
| O=C1NC(=O)C2C3C=CC(C12)C1C2C(=O)NC(=O)C2C31 (stereo not given) | 250 µM and > 1000 µM | 250 µM |  | 250 µM | 250 µM |  | 250 µM | 244 µM | 98.8 µM and 250 µM | GI50 [4]: 98.2 µM; GI50 [5]: 39 µM; GI50 [9]: > 63.3 µM; TGI [10]: 250 µM; TGI [11]: 228 µM; GI50 [1]: 193 µM; TGI [12]: 250 µM |
| COc1nc(N)nc2nc[nH]c12 | > 1000 µM | > 800 µM | 800 µM | > 800 µM | 500 µM and 800 µM | > 800 µM | 500 µM and 800 µM | 498 µM | 499 µM and 800 µM | GI50 [2]: > 800 µM; GI50 [4]: > 800 µM; GI50 [5]: 655 µM; GI50 [9]: 641 µM; TGI [10]: 500 µM; TGI [11]: 500 µM; GI50 [7]: 684 µM; GI50 [1]: 760 µM; TGI [12]: 500 µM |
| COC1=CC(=O)C(O)=C(CC2(C)C(C)CCC3(C)C2CCCC3(C)C)C1=O (stereo not given) |  | 13.2 µM | > 100 µM | 7.07 µM | 45.1 µM | 22.7 µM | > 100 µM | 22.4 µM | 13 µM |  |
| C=C(C)c1nc(Oc2ccccc2)nc(Oc2ccccc2)n1 | 14.8 µM | 26.7 µM | 13.5 µM | 7.93 µM | 6.62 µM | 3.88 µM | 26.8 µM | 13 µM | 30.2 µM | TGI [10]: 8.88 µM; TGI [11]: 3.63 µM; TGI [12]: 2.7 µM |
| CC(C)(C)c1ccc(OCCOCCOc2ccc(C(C)(C)C)cc2S(N)(=O)=O)c(S(N)(=O)=O)c1 |  |  | > 100 µM | > 100 µM | > 100 µM |  | > 100 µM |  | > 100 µM |  |
| CN(C)CCNC(=O)c1cccc2c1nc(-c1cccnc1)c1ccccc12 |  |  | 16.7 µM | 18.5 µM | 21.2 µM |  | 26.3 µM |  | 64 µM |  |
| O=C(CC1(O)C(=O)Nc2c(Cl)ccc(Cl)c21)c1ccc(Cl)cc1 (stereo not given) |  | > 100 µM | 64.3 µM | 33.3 µM | > 100 µM | 88.9 µM | > 100 µM | 39.9 µM | > 100 µM |  |
| CC(C)(C)C1CCC(O)(c2ccccc2)CC1 (stereo not given) |  | > 100 µM and 31.7 µM |  | > 100 µM and 41.6 µM | > 100 µM and 75.5 µM | > 100 µM and 49.2 µM | > 100 µM and 57 µM | 22.9 µM | > 100 µM |  |
| CCC12C=C(C(=O)OC)N3c4ccccc4C4CCN(CCC1)C2C43 (stereo not given) |  | 56.7 µM |  | > 100 µM | > 100 µM | > 100 µM | > 100 µM |  | > 100 µM |  |
| N#CC1(CCCCl)CCCCC1 |  | > 100 µM | > 100 µM | > 100 µM | > 100 µM | > 100 µM | > 100 µM | > 100 µM | > 100 µM |  |
| O=[N+]([O-])c1ccc(/C=C/c2ccc(/C=C/c3ccc([N+](=O)[O-])cc3[N+](=O)[O-])cc2)c([N+](=O)[O-])c1 |  | > 100 µM |  |  | > 100 µM | > 100 µM | > 100 µM | > 100 µM |  |  |
| Cc1ccccc1NC(=O)C1C(=O)N(c2ccccc2C)C(=O)/C1=N\NC(N)=O (stereo not given) |  | > 100 µM |  | > 100 µM | > 100 µM | > 100 µM | > 100 µM |  | > 100 µM |  |
| O/N=C1/C(=C/c2ccc(OCc3ccccc3)cc2)CCCC1C(NO)c1ccc(OCc2ccccc2)cc1 (stereo not given) |  | > 100 µM | > 100 µM | > 100 µM | > 100 µM | > 100 µM |  |  | > 100 µM |  |
| N#Cc1c(CC(=O)O)cc(=O)n2c1[nH]c1ccccc12 |  | > 100 µM |  | > 100 µM | > 100 µM |  | > 100 µM |  |  |  |
| O=C1c2ccccc2N1C(=O)c1ccccc1[N+](=O)[O-] | > 100 µM |  |  |  |  |  |  |  |  |  |
| O=S(=O)(O)C(c1ccccc1)C(O)c1ccccc1 (stereo not given) | > 100 µM |  |  |  |  |  |  |  |  |  |
| O=C(CC1(O)C(=O)Nc2c(Cl)cc(Cl)cc21)c1cccc([N+](=O)[O-])c1 (stereo not given) | 34.6 µM | > 100 µM | 92.1 µM | 16.7 µM | > 100 µM | 30 µM | > 100 µM | 37.3 µM | 98.6 µM |  |
| CNS(=O)(=O)NNS(=O)(=O)c1ccc(C)cc1 |  | > 100 µM |  | > 100 µM | > 100 µM |  |  |  |  |  |
| O=C1c2ccccc2C2(O)N(c3ccccc3)C(=S)N(c3ccccc3)C12O (stereo not given) |  | > 100 µM | > 100 µM | > 100 µM | > 100 µM | > 100 µM | > 100 µM |  | > 100 µM |  |
| O=C(/C=C(\[O-])c1ccccc1)CCCCCCC(=O)/C=C(\[O-])c1ccccc1.O=C(/C=C(\[O-])c1ccccc1)CCCCCCC(=O)/C=C(\[O-])c1ccccc1.O=C(/C=C(\[O-])c1ccccc1)CCCCCCC(=O)/C=C(\[O-])c1ccccc1.[Y+3].[Y+3] |  | > 50 µM |  |  |  |  |  |  |  | GI50 [2]: > 50 µM |
| CCCCCNC(=O)CCCCCCCCCCCNC(=O)CCCCCCCCCCN1C=CC(=CC=C2C=CC(=O)C=C2)C=C1 |  | > 100 µM | > 100 µM | > 100 µM | > 100 µM | > 100 µM | 96.9 µM | > 100 µM |  |  |
